According to PubChem BioAssay (NCI):
“And” between values parts separate entries of the source, which are not always exact repeats. Equal values may be shown once.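 Five compound concentrations were applied to cells in 96-well plates for 48 hours; endpoints were derived by simple linear interpolation of the resulting dose-response curve. Abbreviation: GI50, concentration required for 50% inhibition of growth. Definition used: TGI = concentration required for complete inhibition of growth.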

What was measured:
Test in all cases: NCI anticancer screen, dose series, 48 h
OVCAR-3 ovarian = test system: OVCAR-3 ovarian
IGROV1 ovarian = test system: IGROV1 ovarian
SK-MEL-28 melanoma = test system: SK-MEL-28 melanoma
SK-MEL-2 melanoma = test system: SK-MEL-2 melanoma
NCI-H23 lung = test system: NCI-H23 lung
SNB-75 CNS = test system: SNB-75 CNS
SK-MEL-5 melanoma = test system: SK-MEL-5 melanoma
OVCAR-4 ovarian = test system: OVCAR-4 ovarian
KM12 colon = test system: KM12 colon
COLO 205 colon = test system: COLO 205 colon
CCRF-CEM leukemia = test system: CCRF-CEM leukemia
T-47D breast = test system: T-47D breast
SF-295 CNS = test system: SF-295 CNS
MOLT-4 leukemia = test system: MOLT-4 leukemia
SF-539 CNS = test system: SF-539 CNS
HCT-15 colon = test system: HCT-15 colon
K-562 leukemia = test system: K-562 leukemia
RPMI-8226 leukemia = test system: RPMI-8226 leukemia
SN12C renal = test system: SN12C renal
BT-549 breast = test system: BT-549 breast
786-0 renal = test system: 786-0 renal
PC-3 prostate = test system: PC-3 prostate
EKVX NSCLC = test system: EKVX NSCLC
ACHN renal = test system: ACHN renal
HCT-116 colon = test system: HCT-116 colon
RXF 393 renal = test system: RXF 393 renal
NCI/ADR-RES ovarian = test system: NCI/ADR-RES ovarian
HT29 colon = test system: HT29 colon
UO-31 renal = test system: UO-31 renal

CNC(=O)c1ccccc1Nc1nc(Nc2ccc3c(c2OC)CCC[C@H](N2CCN(CCO)CC2)C3)ncc1Cl
GI50 (OVCAR-3 ovarian): 6.74 µM and 3.18 µM
TGI (OVCAR-3 ovarian): 20.3 µM and > 10 µM
GI50 (IGROV1 ovarian): 1.02 µM and 0.801 µM
TGI (IGROV1 ovarian): 5.75 µM and 4.96 µM
GI50 (SK-MEL-28 melanoma): 1.39 µM and 1.73 µM
TGI (SK-MEL-28 melanoma): 3.11 µM and 4.46 µM
GI50 (SK-MEL-2 melanoma): 1.56 µM and 0.613 µM
TGI (SK-MEL-2 melanoma): 5.9 µM and 2.7 µM
GI50 (NCI-H23 lung): 2.5 µM and 1.21 µM
TGI (NCI-H23 lung): 15 µM and > 10 µM
GI50 (SNB-75 CNS): 1.88 µM and 2.49 µM
TGI (SNB-75 CNS): 12.6 µM and > 10 µM
GI50 (SK-MEL-5 melanoma): 1.74 µM and 1.64 µM
TGI (SK-MEL-5 melanoma): 4.87 µM and 5.19 µM
GI50 (OVCAR-4 ovarian): 1.72 µM and 3.45 µM
TGI (OVCAR-4 ovarian): 13.4 µM and > 10 µM
GI50 (KM12 colon): 3.04 µM and 3.23 µM
TGI (KM12 colon): 11.2 µM and > 10 µM
GI50 (COLO 205 colon): 0.335 µM and 0.295 µM
TGI (COLO 205 colon): 2.2 µM and 1.6 µM
GI50 (CCRF-CEM leukemia): 2.95 µM and 2.97 µM
TGI (CCRF-CEM leukemia): 11 µM and > 10 µM
GI50 (T-47D breast): 2.34 µM and 2.95 µM
TGI (T-47D breast): 17.8 µM and > 10 µM
GI50 (SF-295 CNS): 1.71 µM and 1.49 µM
TGI (SF-295 CNS): 3.79 µM and 3.42 µM
GI50 (MOLT-4 leukemia): 2.45 µM and 2.82 µM
TGI (MOLT-4 leukemia): 6.75 µM and > 10 µM
GI50 (SF-539 CNS): 1.95 µM and 4.38 µM
TGI (SF-539 CNS): 5.31 µM and > 10 µM
GI50 (HCT-15 colon): 0.589 µM and 0.552 µM
TGI (HCT-15 colon): 6.32 µM and 5.69 µM
GI50 (K-562 leukemia): 2.25 µM and 2.51 µM
TGI (K-562 leukemia): 5.94 µM and 8.55 µM
GI50 (RPMI-8226 leukemia): 1.8 µM and 2.95 µM
TGI (RPMI-8226 leukemia): 7.08 µM and > 10 µM
GI50 (SN12C renal): 2.57 µM and 2.59 µM
TGI (SN12C renal): 13.3 µM and > 10 µM
GI50 (BT-549 breast): 3.84 µM and 3.43 µM
TGI (BT-549 breast): 16 µM and > 10 µM
GI50 (786-0 renal): 1.48 µM and 1.44 µM
TGI (786-0 renal): 4.24 µM and 5.06 µM
GI50 (PC-3 prostate): 3.01 µM and 2.06 µM
TGI (PC-3 prostate): 15.5 µM and > 10 µM
GI50 (EKVX NSCLC): 1.75 µM and 1.72 µM
TGI (EKVX NSCLC): 13.7 µM and > 10 µM
GI50 (ACHN renal): 1.16 µM and 1.43 µM
TGI (ACHN renal): 11.3 µM and > 10 µM
GI50 (HCT-116 colon): 1.3 µM and 1.05 µM
TGI (HCT-116 colon): 4.24 µM and 3.95 µM
GI50 (RXF 393 renal): 1.68 µM and 1.98 µM
TGI (RXF 393 renal): 7.3 µM and > 10 µM
GI50 (NCI/ADR-RES ovarian): 4.62 µM and 3.01 µM
TGI (NCI/ADR-RES ovarian): 17.9 µM and > 10 µM
GI50 (HT29 colon): 0.329 µM and 0.256 µM
TGI (HT29 colon): 10.5 µM and 1.27 µM
GI50 (UO-31 renal): 1.38 µM and 0.714 µM
TGI (UO-31 renal): 11.6 µM and 7.69 µM
